Like-named read-outs stand apart in the source and are kept apart here.
What was measured:
[1] = Regional brain distribution of SB-3CT and p-OH SB-3CT after repeated i.p. SB-3CT; format: in vivo, mouse; conditions: mice; for Conc, whole brain: 10 minutes after the last i.p. dose of SB-3CT (25 mg/kg at 0, 2, 24 h)
Experimental: (§3) Under anesthesia, terminal blood was collected in heparin tubes through the posterior vena cava at various time points after the last dose, and tubes were centrifuged to collect plasma. Whole brain samples were harvested after transcardiac perfusion with saline and immediately flash frozen in liquid nitrogen and stored at −80°C until analysis. […] At 10 minutes after the last dose, whole brain samples were rapidly dissected into different regions (cortex, striatum, hippocampus, cerebellum and brain stem), and immediately frozen in dry ice.
(§4) A 75-µL aliquot of plasma was mixed with 150 µL of internal standard in acetonitrile. The sample was centrifuged at 10,000×g for 10 minutes. Brain samples were weighed and homogenized for 5 minutes in one volume equivalent of cold acetonitrile, containing an internal standard, using a bullet blender (Next Advance, Inc., Averill Park, NY). For regional brain distribution, the striatum, hippocampus, cerebellum and brain stem samples were pooled from 3 different mice for analysis.
The homogenates were centrifuged twice at 20,000×g for 20 minutes at 4°C. […] Quantification was performed using peak area ratios relative to the internal standard and linear regression parameters were calculated from the calibration curve standards prepared in blank mouse plasma (and blank brain). The internal standard used in all of the analyses was N-(4-(4-((thiiran-2-ylmethyl)sulfonyl)phenoxy)phenyl)methanesulfonamide [43], which was analyzed by MRM using the transition 398→261. The chromatographic, MRM conditions, and method validation were the same as previously described [17].

MMP-9 [2] = target: MMP-9 (Mus musculus, UniProt P41245); assay: Gelatin zymography of cortical tissue after TBI; format: in vivo; conditions: TBI mice, 25 mg/kg/day i.p. for 7 days, 7 days post-trauma, vs vehicle
Experimental: (§1) All animal procedures were performed under the compliance with protocol approval by the University of Missouri Animal Care and Use Committee, which is in accordance with the National Institutes of Health Guide for the Care and Use of Laboratory Animals. The TBI procedure employed an EM impactor for CCI and was conducted as previously described. A total of 86 mice were used in this study. Briefly, 8–10 week-old adult male C57BL/6J mice (The Jackson Laboratory, Bar Harbor, ME) weighing 20–25 g were anesthetized with 2.0% gaseous isoflurane in a nitrogen/oxygen mixture inside a sealed anesthesia chamber. Each mouse was then stably placed on a Kopf stereotaxic apparatus (David Kopf Instruments, Tujunga, CA). Body temperature was monitored with a rectal thermistor probe (TH-10Kmp, Cell MicroControls, Norfolk, VA), and maintained at a constant 37°C on a silicon heating pad (HS-3×2.5 Heater, Cell MicroControls, Norfolk, VA). […]
Gelatinase activity in brain homogenates was determined by gelatin zymography as described previously, [16]. […] Bound material was released from the beads using 10% DMSO in TBS, and samples were analyzed by electrophoresis in a 10% SDS-PAGE gel containing 0.1% gelatin under non-reducing conditions, followed by incubation overnight at 37°C in 50 mM Tris buffer, pH 8, with 5 mM CaCl2, 200 mM NaCl, and 0.02% Brij 35. […]

[3] = system: TBI mouse model (EM impactor CCI); assay: Brain lesion volume in cresyl violet-stained sections after TBI (stereology, WSI); format: in vivo; conditions: TBI mice, 25 mg/kg i.p. for 7 days
Experimental: All animal procedures were performed under the compliance with protocol approval by the University of Missouri Animal Care and Use Committee, which is in accordance with the National Institutes of Health Guide for the Care and Use of Laboratory Animals. The TBI procedure employed an EM impactor for CCI and was conducted as previously described. A total of 86 mice were used in this study. Briefly, 8–10 week-old adult male C57BL/6J mice (The Jackson Laboratory, Bar Harbor, ME) weighing 20–25 g were anesthetized with 2.0% gaseous isoflurane in a nitrogen/oxygen mixture inside a sealed anesthesia chamber. Each mouse was then stably placed on a Kopf stereotaxic apparatus (David Kopf Instruments, Tujunga, CA). Body temperature was monitored with a rectal thermistor probe (TH-10Kmp, Cell MicroControls, Norfolk, VA), and maintained at a constant 37°C on a silicon heating pad (HS-3×2.5 Heater, Cell MicroControls, Norfolk, VA). Following a midline skin incision and removal of connective tissue under sterile conditions, a 5.0 mm diameter craniotomy was performed in the left parietotemporal skull using a pedal-operated high-speed micro-drill mounted on the stereotaxic arm. A 5.0-mm diameter bone disc was then removed to expose the left cortex, while keeping the dura mater intact. A MATLAB-controlled EM impactor (MyNeuroLab Stereotaxic Impactor, St. Louis, MO) with a 3.0-mm diameter tip was centered at 2.7 mm to the left of the midline suture and 3.0 mm rostral to lambda, at an angle of 15° with the vertical. Once the position was set, the EM impactor delivered a CCI with a velocity of 5.0 m/s and dwell time of 100 ms, at a depth of 2.5 mm. This operation produces a moderately severe contusion in the left parietotemporal cortex and the underlying hippocampus as marked by pronounced behavioral deficits, but virtually no mortality. Following impact, the original skull disc was placed back over the exposed cortex, and the incision was sutured. Each mouse was released from anesthesia and placed in an empty cage over a heating pad for recovery. All efforts were made to minimize animal suffering. For sham control mice used in the study, only the craniotomy was performed. […] Mice were observed daily for the duration of the study (7 or 30 days). For design of the 30-day long term study, animals in each group were double-blinded and randomly assigned into two different tissue process procedures after behavioral testing–mouse brains were either fixed and sectioned for histopathological evaluation, or freshly dissected and then frozen at −80°C for later analysis, reflecting the difference of the animal numbers mentioned in the legends of Figures 7 and 8.
At 7 or 30 days after TBI, mice were sacrificed and brains were processed for histochemical staining and assessment of brain lesion volumes using the stereology technique as described, [45]. Briefly, mice were sacrificed at appropriate experimental time points and transcardially perfused with 4% paraformaldehyde in 100 mM phosphate buffer (PB) and brains were dissected. […] Every 5th section was mounted on poly-L-lysine coated glass slides and stained with cresyl violet to quantify brain lesion volumes and examine neuronal cell death.
Systematic evaluation of a large number of histological specimens in an unbiased manner requires high-speed imaging tools for the supervised analysis of pathological assessment to reduce quantitative variations. […]

[4] = system: TBI mouse model (EM impactor CCI); assay: Neurons with dendrites, NeuN/MAP2 immunohistochemistry after TBI; format: in vivo; conditions: TBI mice, 25 mg/kg i.p. for 7 days; 7 days after TBI
Experimental: as §1
(§2) Fluorescence immunohistochemistry was carried out as described, [16], [19]. For each brain analyzed, coronal sections were chosen near the center of the craniotomy (Bregma −1.50 mm) and adjacent to a section stained with cresyl violet for comparison. […]

[5] = system: TBI mouse model (EM impactor CCI); assay: Microglial activation and astrogliosis, CD11b/GFAP immunofluorescence after TBI; format: in vivo; conditions: TBI mice, SB-3CT treatment for 7 days; 7 days post-trauma
Experimental: as §1, §2

[6] = system: TBI mouse model (EM impactor CCI); assay: Beam-walking test after TBI; format: in vivo; conditions: TBI mice, 25 mg/kg i.p. for 7 days
[7] = system: TBI mouse model (EM impactor CCI); assay: Barnes maze after TBI; format: in vivo; conditions: TBI mice, 25 mg/kg i.p. for 7 days
Experimental: as §1, with “VA). Following a midline skin incision and removal of connective tissue under sterile conditions, a 5.0 mm diameter craniotomy was performed in the left parietotemporal skull using a pedal-operated high-speed micro-drill mounted on the stereotaxic arm. A 5.0-mm diameter bone disc was then removed to expose the left cortex, while keeping the dura mater intact.” for “VA).”

[8] = mouse, in vivo, ip, 25 mg/kg
Experimental: as §3, §4
(§5) The homogenates were centrifuged twice at 20,000×g for 20 minutes at 4°C. […] Quantification was performed using peak area ratios relative to the internal standard and linear regression parameters were calculated from the calibration curve standards prepared in blank mouse plasma (and blank brain). The internal standard used in all of the analyses was N-(4-(4-((thiiran-2-ylmethyl)sulfonyl)phenoxy)phenyl)methanesulfonamide [43], which was analyzed by MRM using the transition 398→261.
(§6) Pharmacokinetic parameters were calculated as follows. The area under the mean concentration-time curve up to the last quantifiable sampling time (AUC 0–last) was calculated by the trapezoidal rule using the pharmacokinetic software PK Solutions (Version 2.0, Summit Research Services, Montrose, CO). The AUC-time curve from time zero to infinity (AUC 0–∞), representing systemic exposure of a therapeutic agent in the body, was calculated as AUC 0–last+(C last/k), where C last is the concentration at the last quantifiable sampling time and k is the elimination rate constant. Half-lives (t ½α and t ½β) were estimated from the linear segment of the initial or terminal portion of the concentration-time data by linear regression, where the slope of the line was the rate constant k and t ½ = ln 2/k.

[9] = cited from earlier work
[10] = Plasma and brain levels and pharmacokinetics of SB-3CT and p-OH SB-3CT after repeated i.p. SB-3CT (UPLC/ESI-MRM); conditions: mice
Experimental: as §3, §4, §5, §6

MMP-9 [11] = conditions: cited from earlier work
[12] = 10 minutes after the last i.p. dose of SB-3CT
[13] = repeated 25 mg/kg i.p. SB-3CT (0, 2, 24 h), 10 min after last dose
[14] = repeated 25 mg/kg i.p. SB-3CT, 10 min after last dose
[15] = repeated 25 mg/kg i.p. SB-3CT, 20 min after last dose
[16] = repeated 25 mg/kg i.p. SB-3CT, 30 min after last dose
[17] = repeated 25 mg/kg i.p. SB-3CT, 60 min after last dose
[18] = repeated 25 mg/kg i.p. SB-3CT, 90 min after last dose
[19] = repeated 25 mg/kg i.p. SB-3CT, 120 min after last dose
[20] = repeated 25 mg/kg i.p. SB-3CT, 180 min after last dose

Chain of MMP-9 (Mus musculus, UniProt P41245) (P41245 108-730): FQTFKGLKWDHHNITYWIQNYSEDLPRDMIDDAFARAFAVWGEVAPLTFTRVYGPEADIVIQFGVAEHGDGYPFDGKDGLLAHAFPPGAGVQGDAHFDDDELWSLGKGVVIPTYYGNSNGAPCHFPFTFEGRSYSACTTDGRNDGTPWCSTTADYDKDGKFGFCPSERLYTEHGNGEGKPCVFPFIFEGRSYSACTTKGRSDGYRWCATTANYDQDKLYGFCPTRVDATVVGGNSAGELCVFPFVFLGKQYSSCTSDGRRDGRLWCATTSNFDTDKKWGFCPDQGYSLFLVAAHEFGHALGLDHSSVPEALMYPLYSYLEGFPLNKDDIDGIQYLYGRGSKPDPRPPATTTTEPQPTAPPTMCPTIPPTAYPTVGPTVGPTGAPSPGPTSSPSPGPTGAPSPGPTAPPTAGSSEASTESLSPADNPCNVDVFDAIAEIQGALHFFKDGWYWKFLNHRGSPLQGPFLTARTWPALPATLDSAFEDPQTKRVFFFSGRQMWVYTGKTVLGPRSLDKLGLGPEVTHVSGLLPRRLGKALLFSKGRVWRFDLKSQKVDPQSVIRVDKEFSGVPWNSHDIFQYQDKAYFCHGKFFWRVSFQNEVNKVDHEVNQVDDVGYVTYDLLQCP

O=S(=O)(CC1CS1)c1ccc(Oc2ccccc2)cc1 (stereo not shown) [SB-3CT]
Conc, whole brain [1]: 3.7±0.5 pmole/mg tissue
Conc, brain stem [1, 12]: 2.8±0.8 pmole/mg tissue
Conc, cerebellum [1, 12]: 2.4±0.4 pmole/mg tissue
Conc, cortex [1, 12]: 2.7±0.8 pmole/mg tissue
Conc, hippocampus [1, 12]: 3.1±0.8 pmole/mg tissue
Conc, plasma [1, 12]: 6.2 ± 0.1 µM
Conc, striatum [1, 12]: 3.5±1.1 pmole/mg tissue
Levels of proMMP-9 and active MMP-9 in lesioned cortex (gelatin zymography, densitometry) (MMP-9 [2]): attenuated
Reduction in brain damage (cortical lesion volume) vs vehicle ([3]; 7 days post-trauma): ~14%
Cortical lesion volume ([3]; 30 days post-trauma): 15.60±1.26 mm^3
Cortical lesion volume smaller than vehicle ([3]; 30 days post-trauma): approximately 24%
Hippocampal lesion volume ([3]; 30 days post-trauma): 4.91±0.40 mm^3
Hippocampal lesion volume smaller than vehicle ([3]; 30 days post-trauma): approximately 26%
Surviving neurons with dendrites, contralateral cortex [4]: 7.53±0.59%
Surviving neurons with dendrites, lesioned cortex [4]: 2.86±0.63%
Immunoreactivity of GFAP-stained astrocytes [5]: partially attenuated
Numbers of CD11b-positive microglial cells in lesioned cortex vs vehicle [5]: significantly reduced
Reduction of motor deficits (beam-walking foot faults) vs vehicle ([6]; day 7 after TBI): more than 50%
Motor function recovery (beam-walking) ([6]; day 14 after TBI): almost-complete recovery
Barnes maze latency AUC over 10 trials (memory acquisition) vs vehicle ([7]; 5-day task started 18 days post-trauma): ameliorated cognitive deficits
Barnes maze latency and error numbers vs vehicle ([7]; last two days of the trials (days 22 and 23 after TBI)): significantly attenuated
AUC 0–last, brain [8]: 86.1 pmol·min/mg
AUC 0–last, plasma [8]: 130 µM·min
AUC 0–∞, brain [8]: 87.8 pmol·min/mg
AUC 0–∞, plasma [8]: 134 µM·min
t ½β (elimination half-life), brain [8]: 53 min
t ½β (elimination half-life), plasma [8]: 25 min
Brain AUC 0–∞ ([9]; following a single dose of SB-3CT): 122 pmol·min/mg
Elimination half-life ([9]; mouse, in vivo): 46 min
Brain AUC 0–∞, equivalent ([10]; assuming a density of 1 g/mL, repeated 25 mg/kg i.p. SB-3CT): 87.8 µM·min
t ½α, brain ([10]; repeated 25 mg/kg i.p. SB-3CT): 8.7 min
t ½α, plasma ([10]; repeated 25 mg/kg i.p. SB-3CT): 6.6 min
Brain concentration [10, 13]: 3.7±0.5 pmole/mg tissue
Plasma concentration [10, 14]: 6.2 ± 0.1 µM
Brain concentration [10, 15]: 1.6±0.3 pmole/mg tissue
Plasma concentration [10, 15]: 2.9 ± 0.3 µM
Brain concentration [10, 16]: 0.99±0.09 pmole/mg tissue
Plasma concentration [10, 16]: 0.76 ± 0.26 µM
Brain concentration [10, 17]: 0.19±0.05 pmole/mg tissue
Plasma concentration [10, 17]: 0.55 ± 0.08 µM
Brain concentration [10, 18]: 0.16±0.08 pmole/mg tissue
Plasma concentration [10, 18]: 0.22 ± 0.13 µM
Brain concentration [10, 19]: 0.049±0.013 pmole/mg tissue
Plasma concentration [10, 19]: 0.10 ± 0.04 µM
Brain concentration [10, 20]: 0.022±0.005 pmole/mg tissue

O=S(=O)(CC1CS1)c1ccc(Oc2ccc(O)cc2)cc1 (stereo not shown) [p-OH SB-3CT]
Conc, whole brain [1]: 0.14±0.04 pmole/mg tissue
Conc, brain stem [1, 12]: 0.13±0.03 pmole/mg tissue
Conc, cerebellum [1, 12]: 0.13±0.03 pmole/mg tissue
Conc, cortex [1, 12]: 0.16±0.05 pmole/mg tissue
Conc, hippocampus [1, 12]: 0.11±0.03 pmole/mg tissue
Conc, plasma [1, 12]: 0.12 ± 0.03 µM
Conc, striatum [1, 12]: 0.12±0.04 pmole/mg tissue
Ratio of concentration, brain stem to plasma [1, 12]: 1.1±0.4
Ratio of concentration, cerebellum to plasma [1, 12]: 1.1±0.4
Ratio of concentration, cortex to plasma [1, 12]: 1.3±0.5
Ratio of concentration, hippocampus to plasma [1, 12]: 0.92±0.34
Ratio of concentration, striatum to plasma [1, 12]: 1.0±0.4
Ratio of concentration, whole brain to plasma [1, 12]: 1.2±0.4
Ki (MMP-9 [11]): 0.16 µM
AUC 0–last, brain ([10]; repeated 25 mg/kg i.p. SB-3CT): 2.98 pmol·min/mg
AUC 0–last, plasma ([10]; repeated 25 mg/kg i.p. SB-3CT): 1.45 µM·min
AUC 0–∞, brain ([10]; repeated 25 mg/kg i.p. SB-3CT): 4.61 pmol·min/mg
t ½α, brain ([10]; repeated 25 mg/kg i.p. SB-3CT): 4.2 min
t ½α, plasma ([10]; repeated 25 mg/kg i.p. SB-3CT): 3.4 min
t ½β (elimination half-life), brain ([10]; repeated 25 mg/kg i.p. SB-3CT): 187 min
Brain concentration [10, 13]: 0.14±0.04 pmole/mg tissue
Plasma concentration [10, 14]: 0.12 ± 0.03 µM
Brain concentration [10, 15]: 0.026±0.005 pmole/mg tissue
Plasma concentration [10, 15]: 0.016 ± 0.004 µM
Brain concentration [10, 16]: 0.015±0.004 pmole/mg tissue
Plasma concentration [10, 16]: 0.0060 ± 0.0010 µM
Brain concentration [10, 17]: 0.011±0.007 pmole/mg tissue
Brain concentration [10, 18]: 0.0081±0.0022 pmole/mg tissue
Brain concentration [10, 19]: 0.0076±0.0009 pmole/mg tissue
Brain concentration [10, 20]: 0.0060±0.0004 pmole/mg tissue
Brain AUC /Plasma AUC ([10]; ratio of AUC 0–last, repeated 25 mg/kg i.p. SB-3CT): 2.1
